Patent publication US20090143279A1 (priority 2007, published 2009)
Like-named read-outs stand apart in the source and are kept apart here.

Key:
[1] = test system: mitochondrial membrane potential; assay type: cell-based, mouse
reactive oxygen species = assay type: cell-based, mouse
OXPHOS gene expression = assay type: cell-based, mouse
nuOXPHOS transcripts = assay type: cell-based, mouse
mtOXPHOS transcripts = assay type: cell-based, mouse
cytochrome c = assay type: cell-based, mouse
[2] = test system: cellular dehydrogenase activity
[3] = Conc 20 μM, normalized score vs mock-treated (DMSO) wells
[4] = composite Z-score vs DMSO, Conc 20 μM
[5] = composite Z-score vs DMSO wells, Conc 20 μM
[6] = 20 μM, composite Z-score vs DMSO
[7] = 12.18 μM, composite Z-score vs DMSO
[8] = composite Z-score vs mock-treated (DMSO) wells, concentration of each compound in μM
[9] = composite Z-score vs mock-treated (DMSO) wells, Conc 20 μM

O=c1c(O)cccc2c([C@H]3Oc4cc(O)cc(O)c4C[C@H]3O)cc(O)c(O)c12 [theaflavanin]
ΔΨm (composite Z-score) [1, 3]: −2.074
ROS (composite Z-score) (reactive oxygen species; [3]): −0.040
GE-HTS (composite Z-score) (OXPHOS gene expression; [3]): −0.695
nucOX (composite Z-score) (nuOXPHOS transcripts; [3]): −0.764
mitoOX (composite Z-score) (mtOXPHOS transcripts; [3]): −0.333
cyt c (composite Z-score) (cytochrome c; [3]): −0.166
Viability (composite Z-score) (C2C12 myotubes; [3]): −1.349
MTT (composite Z-score) [2, 3]: −0.665

CCNC(=O)CC[C@H](N)C(=O)O [theanine]
ΔΨm [1, 4]: −0.557
ROS (reactive oxygen species; [4]): 0.615
GE-HTS (OXPHOS gene expression; [4]): −1.153
nucOX (nuOXPHOS transcripts; [4]): −1.209
mitoOX (mtOXPHOS transcripts; [4]): −0.778
cyt c (cytochrome c; [4]): 0.244
Viability (C2C12 myotubes; [4]): −0.613
MTT [2, 4]: −0.851

Cn1cnc2c1c(=O)[nH]c(=O)n2C [theobromine]
ΔΨm [1, 5]: −0.847
ROS (reactive oxygen species; [5]): 0.179
GE-HTS (OXPHOS gene expression; [5]): −0.561
nucOX (nuOXPHOS transcripts; [5]): −0.449
mitoOX (mtOXPHOS transcripts; [5]): −0.609
cyt c (cytochrome c): 0.007
cyt c (cytochrome c; [5]): −0.026
Viability (C2C12 myotubes; [5]): −0.264
MTT [2, 5]: −0.982

CN(C)C(=S)SSC(=S)N(C)C [thiram]
ΔΨm [1, 6]: −4.011
ROS (reactive oxygen species; [6]): −3.915
GE-HTS (OXPHOS gene expression; [6]): −2.420
nucOX (nuOXPHOS transcripts; [6]): −2.770
mitoOX (mtOXPHOS transcripts; [6]): −1.220
cyt c (cytochrome c; [6]): −4.853
Viability (C2C12 myotubes; [6]): −5.812
MTT [2, 6]: −6.222

CCN(CC)CCNC(=O)c1cc(S(C)(=O)=O)ccc1OC [tiapride]
ΔΨm [1, 7]: −0.800
ΔΨm [1, 6]: 0.171
ROS (reactive oxygen species; [7]): 0.653
ROS (reactive oxygen species; [6]): −0.466
GE-HTS (OXPHOS gene expression; [7]): 0.341
GE-HTS (OXPHOS gene expression; [6]): −0.283
nucOX (nuOXPHOS transcripts; [7]): 0.416
nucOX (nuOXPHOS transcripts; [6]): −0.220
mitoOX (mtOXPHOS transcripts; [7]): 0.086
mitoOX (mtOXPHOS transcripts; [6]): −0.355
cyt c (cytochrome c; [7]): 0.917
cyt c (cytochrome c; [6]): −0.107
Viability (C2C12 myotubes; [7]): −1.454
Viability (C2C12 myotubes; [6]): 1.174
MTT [2, 7]: −1.563
MTT [2, 6]: −0.646

C[C@H]1CC[C@]2(NC1)O[C@H]1C[C@H]3[C@@H]4CC[C@H]5C[C@@H](O)CC[C@]5(C)[C@H]4CC[C@]3(C)[C@H]1[C@@H]2C [tomatidine]
ΔΨm [1, 4]: −0.425
ROS (reactive oxygen species; [4]): 1.323
GE-HTS (OXPHOS gene expression; [4]): −1.375
nucOX (nuOXPHOS transcripts; [4]): −1.473
mitoOX (mtOXPHOS transcripts; [4]): −0.857
cyt c (cytochrome c; [4]): 0.913
cyt c (cytochrome c; [8]): 1.135
Viability (C2C12 myotubes; [4]): 0.490
MTT [2, 4]: −1.376

C[C@H]1CC[C@]2(NC1)O[C@H]1C[C@H]3[C@@H]4CC[C@H]5C[C@@H](O[C@@H]6O[C@H](CO)[C@H](O[C@@H]7O[C@H](CO)[C@@H](O)[C@H](O[C@@H]8OC[C@@H](O)[C@H](O)[C@H]8O)[C@H]7O[C@@H]7O[C@H](CO)[C@@H](O)[C@H](O)[C@H]7O)[C@H](O)[C@H]6O)CC[C@]5(C)[C@H]4CC[C@]3(C)[C@H]1[C@@H]2C [tomatine]
ΔΨm [1, 4]: −2.423
ROS (reactive oxygen species; [4]): −2.084
GE-HTS (OXPHOS gene expression; [4]): −2.151
nucOX (nuOXPHOS transcripts; [4]): −2.158
mitoOX (mtOXPHOS transcripts; [4]): −1.725
cyt c (cytochrome c; [4]): −3.979
Viability (C2C12 myotubes; [4]): −4.793
MTT [2, 4]: −4.122

CC(C)c1c(O)ccc2c1CCC1[C@@](C)(C=O)CCC[C@]21C (stereo partly shown) [totaralolal]
ΔΨm [1, 9]: 0.460
ROS (reactive oxygen species; [9]): 1.617
GE-HTS (OXPHOS gene expression; [9]): −0.700
nucOX (nuOXPHOS transcripts; [9]): −0.401
mitoOX (mtOXPHOS transcripts; [9]): −1.230
cyt c (cytochrome c; [9]): −0.226
Viability (C2C12 myotubes; [9]): 0.591
MTT [2, 9]: 1.526

COC(=O)[C@@]1(C)CCC[C@]2(C)c3ccc(O)c(C(C)C)c3CCC12 (stereo partly shown) [totarol-19-carboxylic acid, methyl ester]
ΔΨm [1, 9]: −0.409
ROS (reactive oxygen species; [9]): 1.290
GE-HTS (OXPHOS gene expression; [9]): −0.323
nucOX (nuOXPHOS transcripts; [9]): −0.005
mitoOX (mtOXPHOS transcripts; [9]): −0.853
cyt c (cytochrome c; [9]): 0.085
Viability (C2C12 myotubes; [9]): −0.739
MTT [2, 9]: 1.019

CC(C)c1c(O)ccc2c1CCC1C(C)(C(=O)O)CCCC21C (stereo not shown) [totarol-19-carboxylic acid]
ΔΨm [1, 8]: −0.008
ROS (reactive oxygen species; [8]): −0.209
GE-HTS (OXPHOS gene expression; [8]): −0.399
nucOX (nuOXPHOS transcripts; [8]): −0.494
mitoOX (mtOXPHOS transcripts; [8]): −0.073
cyt c (cytochrome c; [8]): −1.116
Viability (C2C12 myotubes; [8]): −0.506
MTT [2, 8]: −1.701

CCOC(=O)[C@H](CCc1ccccc1)N[C@@H](C)C(=O)N1[C@H](C(=O)O)C[C@H]2CCCC[C@@H]21 [trandoapril]
ΔΨm [1, 8]: −0.210
ROS (reactive oxygen species; [8]): 0.572
GE-HTS (OXPHOS gene expression; [8]): −1.375
nucOX (nuOXPHOS transcripts; [8]): −1.466
mitoOX (mtOXPHOS transcripts; [8]): −0.884
cyt c (cytochrome c; [8]): 0.687
Viability (C2C12 myotubes; [8]): 0.694
MTT [2, 8]: −0.684

CC(=O)OCC(COC(C)=O)OC(C)=O [triacetin]
ΔΨm [1, 6]: −0.571
ROS (reactive oxygen species; [6]): 0.431
GE-HTS (OXPHOS gene expression; [6]): −0.327
nucOX (nuOXPHOS transcripts; [6]): −0.187
mitoOX (mtOXPHOS transcripts; [6]): −0.569
cyt c (cytochrome c; [6]): −0.264
Viability (C2C12 myotubes; [6]): −0.842
MTT [2, 6]: −0.717
